Laboratory results as given in the NIST ThermoML archive (doi:10.1016/j.fluid.2014.06.029).
Numbers after ± are expanded uncertainties.

Details: Liquid, Ebulliometric method (Recirculating still)

Row | SMILES | vapor or sublimation pressure (283.15 K) | vapor or sublimation pressure (293.15 K) | vapor or sublimation pressure (303.15 K) | vapor or sublimation pressure (313.15 K) | vapor or sublimation pressure (323.15 K)
1 | COC [dimethyl ether] | 372 ± 10 kPa | 501 ± 10 kPa | 687 ± 10 kPa | 898 ± 10 kPa | 1116.2 ± 10 kPa
2 | CI [iodomethane] | 30 ± 10 kPa | 47.5 ± 10 kPa | 69.9 ± 10 kPa | 95 ± 10 kPa | 129 ± 10 kPa
